Results taken from patent US11649255B2, “Indazoles as hematopoietic progenitor kinase 1 (HPK1) inhibitors and methods using same” (1st Biotherapeutics, Inc., priority 2020, dated 2023).

Biological target: recombinant human HPK1 (Homo sapiens (Human), UniProt Q92918)
Assay: HPK1 kinase assay (ADP-Glo)
Type: biochemical
Settings: 25 μM ATP, MBP substrate
Summary of the method: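 Activity was read as ADP formed, detected by ADP-Glo luminescence after the reaction of 5 ng recombinant human HPK1 with MBP and ATP (stocks 0.5 μg/μl and 25 μM) for 40 min at 30 °C. Buffer was Tris pH 7.5 with MgCl2, BSA and DTT, with compound in 0.5% DMSO. IC50 came from inhibition curves.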

Sequence of recombinant human HPK1 (Q92918 whole entry): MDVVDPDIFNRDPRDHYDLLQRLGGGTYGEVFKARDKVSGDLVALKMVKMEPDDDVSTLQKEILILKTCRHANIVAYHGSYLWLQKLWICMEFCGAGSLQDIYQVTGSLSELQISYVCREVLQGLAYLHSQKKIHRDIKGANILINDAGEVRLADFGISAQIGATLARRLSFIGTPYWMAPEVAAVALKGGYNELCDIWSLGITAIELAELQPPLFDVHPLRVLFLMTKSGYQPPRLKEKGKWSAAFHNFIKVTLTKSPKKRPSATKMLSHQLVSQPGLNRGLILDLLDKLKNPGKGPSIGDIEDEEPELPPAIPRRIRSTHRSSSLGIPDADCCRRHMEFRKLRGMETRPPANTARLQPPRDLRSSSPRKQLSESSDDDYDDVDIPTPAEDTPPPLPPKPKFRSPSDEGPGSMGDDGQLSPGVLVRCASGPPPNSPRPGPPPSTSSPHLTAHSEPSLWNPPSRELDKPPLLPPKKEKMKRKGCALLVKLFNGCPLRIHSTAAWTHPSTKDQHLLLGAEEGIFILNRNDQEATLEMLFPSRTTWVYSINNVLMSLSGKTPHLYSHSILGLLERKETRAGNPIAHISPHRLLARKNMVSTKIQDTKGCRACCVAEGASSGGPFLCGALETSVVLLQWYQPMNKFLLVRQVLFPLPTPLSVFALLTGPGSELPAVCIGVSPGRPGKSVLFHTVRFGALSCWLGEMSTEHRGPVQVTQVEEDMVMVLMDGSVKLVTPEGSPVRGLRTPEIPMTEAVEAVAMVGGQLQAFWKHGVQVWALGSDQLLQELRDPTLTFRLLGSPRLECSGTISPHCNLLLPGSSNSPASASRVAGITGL

COc1ccc2[nH]ncc2c1-c1ccn2nc(NC(=O)[C@@H]3C[C@@H]3F)cc2c1 [Example 449, (1S,2S)-2-fluoro-N-(5-(5-methoxy-1H-indazol-4-yl)pyrazolo[1,5-a]pyridin-2-yl)cyclopropane-1-carboxamide]
IC50: 101 to 500 nM

CSc1c(F)c(C)c(-c2ccc3nc(NC(=O)[C@@H]4C[C@@H]4F)sc3c2)c2cn[nH]c12 [Example 64, (1S,2S)-2-fluoro-N-(6-(6-fluoro-5-methyl-7-(methylthio)-1H-indazol-4-yl)benzo[d]thiazol-2-yl)cyclopropane-1-carboxamide]
IC50: < 100 nM

CC(NC(=O)C(F)F)c1c(F)c(Cl)c(-c2ccc3nc(NC(=O)[C@@H]4C[C@@H]4F)cn3c2)c2cn[nH]c12 (stereo partly drawn) [Example 441, (1S,2S)-N-(6-(5-chloro-7-(1-(2,2-difluoroacetamido)ethyl)-6-fluoro-1H-indazol-4-yl)imidazo[1,2-a]pyridin-2-yl)-2-fluorocyclopropane-1-carboxamide]
IC50: < 100 nM

CN1CCN(c2c(F)c(Cl)c(-c3ccc4nc(NC(=O)[C@@H]5C[C@@H]5F)cn4c3)c3cn[nH]c23)CC1 [Example 277, (1S,2S)-N-(6-(5-chloro-6-fluoro-7-(4-methylpiperazin-1-yl)-1H-indazol-4-yl)imidazo[1,2-a]pyridin-2-yl)-2-fluorocyclopropane-1-carboxamide]
IC50: 101 to 500 nM

CC(=O)c1c(F)c(Cl)c(-c2ccc3nc(NC(=O)[C@@H]4C[C@@H]4F)cn3c2)c2cn[nH]c12 [Example 319, (1S,2S)-N-(6-(7-acetyl-5-chloro-6-fluoro-1H-indazol-4-yl)imidazo[1,2-a]pyridin-2-yl)-2-fluorocyclopropane-1-carboxamide]
IC50: < 100 nM

O=C(Nc1cn2cc(-c3c(C(F)(F)F)ccc4[nH]ncc34)ccc2n1)[C@@H]1C[C@@H]1F [Example 236, (1S,2S)-2-fluoro-N-(6-(5-(trifluoromethyl)-1H-indazol-4-yl)imidazo[1,2-a]pyridin-2-yl)cyclopropane-1-carboxamide]
IC50: < 100 nM

CSc1ccc2[nH]ncc2c1-c1ccn2nc(NC(=O)[C@@H]3C[C@@H]3F)cc2c1 [Example 463, (1S,2S)-2-fluoro-N-(5-(5-(methylthio)-1H-indazol-4-yl)pyrazolo[1,5-a]pyridin-2-yl)cyclopropane-1-carboxamide]
IC50: < 100 nM

O=C(Nc1nc2ccc(-c3cccc4[nH]ncc34)cc2s1)C1CC1 [Example 14, N-(6-(1H-indazol-4-yl)benzo[d]thiazol-2-yl)cyclopropanecarboxamide]
IC50: > 1000 nM

CN(C)CCN(C)c1c(F)c(Cl)c(-c2ccc3nc(NC(=O)[C@@H]4C[C@@H]4F)sc3c2)c2cn[nH]c12 [Example 85, (1S,2S)-N-(6-(5-chloro-7-((2-(dimethylamino)ethyl)(methyl)amino)-6-fluoro-1H-indazol-4-yl)benzo[d]thiazol-2-yl)-2-fluorocyclopropane-1-carboxamide]
IC50: < 100 nM

CCSc1c(F)c(Cl)c(-c2ccn3nc(NC(=O)[C@@H]4C[C@@H]4F)cc3c2)c2cn[nH]c12 [Example 621, (1S,2S)-N-(5-(5-chloro-7-(ethylthio)-6-fluoro-1H-indazol-4-yl)pyrazolo[1,5-a]pyridin-2-yl)-2-fluorocyclopropane-1-carboxamide]
IC50: < 100 nM

CC(C)N(C)c1c(F)c(Cl)c(-c2ccc3nc(NC(=O)[C@@H]4C[C@@H]4F)cn3c2)c2cn[nH]c12 [Example 360, (1S,2S)-N-(6-(5-chloro-6-fluoro-7-(isopropyl(methyl)amino)-1H-indazol-4-yl)imidazo[1,2-a]pyridin-2-yl)-2-fluorocyclopropane-1-carboxamide]
IC50: < 100 nM

CCOCc1c(F)c(Cl)c(-c2ccc3nc(NC(=O)[C@@H]4C[C@@H]4F)cn3c2)c2cn[nH]c12 [Example 391, (1S,2S)-N-(6-(5-chloro-7-(ethoxymethyl)-6-fluoro-1H-indazol-4-yl)imidazo[1,2-a]pyridin-2-yl)-2-fluorocyclopropane-1-carboxamide]
IC50: < 100 nM

COC(=O)c1c(F)c(C)c(-c2ccc3nc(NC(=O)[C@@H]4C[C@@H]4F)sc3n2)c2cn[nH]c12 [Example 183, methyl 6-fluoro-4-(2-((1S,2S)-2-fluorocyclopropane-1-carboxamido)thiazolo[5,4-b]pyridin-5-yl)-5-methyl-1H-indazole-7-carboxylate]
IC50: < 100 nM

O=C(Nc1nc2ccc(-c3c(-c4cccs4)ccc4[nH]ncc34)cc2s1)C1CC1 [Example 13, N-(6-(5-(thiophen-2-yl)-1H-indazol-4-yl)benzo[d]thiazol-2-yl)cyclopropanecarboxamide]
IC50: > 1000 nM

CNC(=O)OCCN(C)c1c(F)c(C)c(-c2ccn3nc(NC(=O)[C@@H]4C[C@@H]4F)cc3c2)c2cn[nH]c12 [Example 580, 2-((6-fluoro-4-(2-((1S,2S)-2-fluorocyclopropane-1-carboxamido)pyrazolo[1,5-a]pyridin-5-yl)-5-methyl-1H-indazol-7-yl)(methyl)amino)ethyl methylcarbamate]
IC50: < 100 nM

O=C(Nc1cn2cc(-c3c(Cl)c(F)c(Cn4cnnn4)c4[nH]ncc34)ccc2n1)[C@@H]1C[C@@H]1F [Example 392, (1S,2S)-N-(6-(7-((1-tetrazol-1-yl)methyl)-5-chloro-6-fluoro-1H-indazol-4-yl)imidazo[1,2-a]pyridin-2-yl)-2-fluorocyclopropane-1-carboxamide]
IC50: < 100 nM

COc1c(F)cc2[nH]ncc2c1-c1ccc2nc(NC(=O)C3CC3)cn2c1 [Example 252, N-(6-(6-fluoro-5-methoxy-1H-indazol-4-yl)imidazo[1,2-a]pyridin-2-yl)cyclopropanecarboxamide]
IC50: < 100 nM

O=C(Nc1cc2cc(-c3c(C(F)F)c(F)cc4[nH]ncc34)ccn2n1)[C@@H]1C[C@@H]1F [Example 468, (1S,2S)-N-(5-(5-(difluoromethyl)-6-fluoro-1H-indazol-4-yl)pyrazolo[1,5-a]pyridin-2-yl)-2-fluorocyclopropane-1-carboxamide]
IC50: < 100 nM

COCCSc1c(F)c(Cl)c(-c2ccc3nc(NC(=O)[C@@H]4C[C@@H]4F)sc3c2)c2cn[nH]c12 [Example 71, (1S,2S)-N-(6-(5-chloro-6-fluoro-7-((2-methoxyethyl)thio)-1H-indazol-4-yl)benzo[d]thiazol-2-yl)-2-]
IC50: < 100 nM

CCOc1c(F)c(C)c(-c2ccc3nc(NC(=O)[C@@H]4C[C@@H]4F)cn3c2)c2cn[nH]c12 [Example 288, (1S,2S)-N-(6-(7-ethoxy-6-fluoro-5-methyl-1H-indazol-4-yl)imidazo[1,2-a]pyridin-2-yl)-2-fluorocyclopropane-1-carboxamide]
IC50: < 100 nM

Cc1c(F)c(C#N)c2[nH]ncc2c1-c1ccn2nc(NC(=O)[C@@H]3C[C@@H]3F)cc2c1 [Example 582, (1S,2S)-N-(5-(7-cyano-6-fluoro-5-methyl-1H-indazol-4-yl)pyrazolo[1,5-a]pyridin-2-yl)-2-fluorocyclopropane-1-carboxamide]
IC50: < 100 nM

N#Cc1ccc2[nH]ncc2c1-c1ccn2nc(NC(=O)[C@@H]3C[C@@H]3F)cc2c1 [Example 456, (1S,2S)-N-(5-(5-cyano-1H-indazol-4-yl)pyrazolo[1,5-a]pyridin-2-yl)-2-fluorocyclopropane-1-carboxamide]
IC50: 501 to 1000 nM

NC(=O)c1c(F)c(Cl)c(-c2ccn3nc(NC(=O)[C@@H]4C[C@@H]4F)cc3c2)c2cn[nH]c12 [Example 576, 5-chloro-6-fluoro-4-(2-((1S,2S)-2-fluorocyclopropane-1-carboxamido)pyrazolo[1,5-a]pyridin-5-yl)-1H-indazole-7-carboxamide]
IC50: > 1000 nM

CN(C)C(=O)c1c(F)cc2[nH]ncc2c1-c1ccn2nc(NC(=O)[C@@H]3C[C@@H]3F)cc2c1 [Example 605, 6-fluoro-4-(2-((1S,2S)-2-fluorocyclopropane-1-carboxamido)pyrazolo[1,5-a]pyridin-5-yl)-N,N-dimethyl-1H-indazole-5-carboxamide]
IC50: > 1000 nM

CCc1c(F)c(F)c2[nH]ncc2c1-c1ccc2nc(NC(=O)[C@@H]3C[C@@H]3F)sc2n1 [Example 176, (1S,2S)-N-(5-(5-ethyl-6,7-difluoro-1H-indazol-4-yl)thiazolo[5,4-b]pyridin-2-yl)-2-fluorocyclopropane-1-carboxamide]
IC50: < 100 nM

CN(C)c1ccc(-c2ccc3nc(NC(=O)[C@@H]4C[C@@H]4F)cn3c2)c2cn[nH]c12 [Example 352, (1S,2S)-N-(6-(7-(dimethylamino)-1H-indazol-4-yl)imidazo[1,2-a]pyridin-2-yl)-2-fluorocyclopropane-1-carboxamide]
IC50: 101 to 500 nM

Cc1c(F)cc2[nH]nc(C3CC3)c2c1-c1ccn2nc(NC(=O)[C@@H]3C[C@@H]3F)cc2c1 [Example 473, (1S,2S)-N-(5-(3-cyclopropyl-6-fluoro-5-methyl-1H-indazol-4-yl)pyrazolo[1,5-a]pyridin-2-yl)-2-fluorocyclopropane-1-carboxamide]
IC50: > 1000 nM

CNC(=O)C(C)c1c(F)c(Cl)c(-c2ccc3nc(NC(=O)[C@@H]4C[C@@H]4F)cn3c2)c2cn[nH]c12 (stereo partly drawn) [Example 433, (1S,2S)-N-(6-(5-chloro-6-fluoro-7-(1-(methylamino)-1-oxopropan-2-yl)-1H-indazol-4-yl)imidazo[1,2-a]pyridin-2-yl)-2-fluorocyclopropane-1-carboxamide]
IC50: < 100 nM

CCN(CC)c1c(F)c(Cl)c(-c2ccn3nc(NC(=O)[C@@H]4C[C@@H]4F)cc3c2)c2cn[nH]c12 [Example 497, (1S,2S)-N-(5-(5-chloro-7-(diethylamino)-6-fluoro-1H-indazol-4-yl)pyrazolo[1,5-a]pyridin-2-yl)-2-fluorocyclopropane-1-carboxamide]
IC50: < 100 nM

CSc1c(F)cc(-c2ccc3nc(NC(=O)[C@@H]4C[C@@H]4F)cn3c2)c2cn[nH]c12 [Example 342, (1S,2S)-2-fluoro-N-(6-(6-fluoro-7-(methylthio)-1H-indazol-4-yl)imidazo[1,2-a]pyridin-2-yl)cyclopropane-1-carboxamide]
IC50: < 100 nM
